Assay: Body weight, biochemical and haematological parameters in DHT-induced AGA mice (0.5% testosterone then topical treatment)
Format: in vivo, C57BL/6J mice
Conditions: for LYMPH: unit assumed
Protocol: The experiments were performed on C57BL/6 J and Athymic nude mice (NU/J Foxn1^nu) of 6–7 weeks of age obtained from Animal House Facility, CSIR-Indian Institute of Integrative Medicine (IIIM), Jammu, India. […] The animals were provided with ad libitum feed (standard pellet diet) and autoclaved RO water throughout the study. The body weight of mice was measured after seven days before treatment.
C57BL/6 J mice (male) were obtained from CSIR-IIIM Animal House at 7 weeks of age. We used a DHT-induced AGA mice model for this study. […] At the end of the experiment, skin samples were collected and preserved in 10% neutral buffered formalin for tissue sectioning and staining using haematoxylin and eosin (H&E). The histopathological examinations were performed under the 10× and 40× objectives of light microscope (Magnus, Mx21i).
Every two weeks during the experimental period, mice were anesthetized, and the blood samples were collected into tubes containing heparin sodium to detect the total and differential white blood cells, haemoglobin, red blood cell, platelet count, mean corpuscular haemoglobin, mean corpuscular volume, red blood cell volume, mean platelet volume, and analyzed using an automated haematology analyzer (Model: XT1800i; Make: Sysmex).
Every two weeks during the experimental period, mice and rats were anesthetized, and blood samples were collected into non-heparinized tubes and then centrifuged at 1000 rpm at 4 °C for 10 min to obtain the serum. The biochemical parameters, including total protein, aspartate aminotransferase, alanine aminotransferase, total protein, albumin, total bilirubin, direct bilirubin, glucose, total cholesterol, triglyceride, low-density lipoprotein, high-density lipoprotein, creatinine, and uric acid, were measured using an automatic biochemical analyzer (Model: EM360; Make: Erba Mannheim).

With `CCS(=O)(=O)N1CC(CC#N)(n2cc(-c3ncnc4[nH]ccc34)cn2)C1` [Baricitinib, baricitinib, reference compound] the ALP (Day 21, 0.02 mg/Kg) was 108 U/L, the ALT/SGPT (Day 21, 0.02 mg/Kg) was 74 U/L and the AST/SGOT (Day 21, 0.02 mg/Kg) was 143 U/L. The Cholesterol (Day 21, 0.02 mg/Kg) was 171 mg/dL, the Creatine (Day 21, 0.02 mg/Kg) was 0.72 mg/dL and the HCT (Day 21, 0.02 mg/Kg) was 45%. It also gave an HDL (Day 21, 0.02 mg/Kg) of 105 mg/dL, an LDL (Day 21, 0.02 mg/Kg) of 101 mg/dL and an MCHC (Day 21, 0.02 mg/Kg) of 28 g/dL. The MCV (Day 21, 0.02 mg/Kg) was 52 fL, the NEUT (Day 21, 0.02 mg/Kg) was 30.5% and the PLT (Day 21, 0.02 mg/Kg) was 946 103/μl. For the same compound, the RBC (Day 21, 0.02 mg/Kg) was 8.2 1012/l, the Total protein (Day 21, 0.02 mg/Kg) was 5.0 g/dL and the Triglyceride (Day 21, 0.02 mg/Kg) was 98 mg/dL. For the same compound, the Urea (Day 21, 0.02 mg/Kg) was 69 mg/dL, the WBC (Day 21, 0.02 mg/Kg) was 4.3 103/μl and the LYMPH (Day 21, 0.02 mg/Kg) was 67.4%. It also gave an ALP (Day 21, 0.04 mg/Kg) of 99 U/L, an ALT/SGPT (Day 21, 0.04 mg/Kg) of 64 U/L and an AST/SGOT (Day 21, 0.04 mg/Kg) of 98 U/L. The Cholesterol (Day 21, 0.04 mg/Kg) was 171 mg/dL, the Creatine (Day 21, 0.04 mg/Kg) was 0.69 mg/dL and the HCT (Day 21, 0.04 mg/Kg) was 43%. The HDL (Day 21, 0.04 mg/Kg) was 122 mg/dL, the LDL (Day 21, 0.04 mg/Kg) was 106 mg/dL and the MCHC (Day 21, 0.04 mg/Kg) was 29 g/dL. The MCV (Day 21, 0.04 mg/Kg) was 52 fL, the NEUT (Day 21, 0.04 mg/Kg) was 30.5% and the PLT (Day 21, 0.04 mg/Kg) was 1082 103/μl. The RBC (Day 21, 0.04 mg/Kg) was 8.6 1012/l, the Total protein (Day 21, 0.04 mg/Kg) was 4.9 g/dL and the Triglyceride (Day 21, 0.04 mg/Kg) was 139 mg/dL. For the same compound, the Urea (Day 21, 0.04 mg/Kg) was 54 mg/dL, the WBC (Day 21, 0.04 mg/Kg) was 3.6 103/μl and the LYMPH (Day 21, 0.04 mg/Kg) was 67.4%. For the same compound, the ALP (Day 21, 0.1mg/Kg) was 144 U/L, the ALT/SGPT (Day 21, 0.1mg/Kg) was 92 U/L and the AST/SGOT (Day 21, 0.1mg/Kg) was 104 U/L. For the same compound, the Cholesterol (Day 21, 0.1mg/Kg) was 173 mg/dL, the Creatine (Day 21, 0.1mg/Kg) was 0.48 mg/dL and the HCT (Day 21, 0.1mg/Kg) was 48%. It also gave an HDL (Day 21, 0.1mg/Kg) of 108 mg/dL, an LDL (Day 21, 0.1mg/Kg) of 100 mg/dL and an MCHC (Day 21, 0.1mg/Kg) of 29 g/dL. The MCV (Day 21, 0.1mg/Kg) was 50 fL, the NEUT (Day 21, 0.1mg/Kg) was 26.8% and the PLT (Day 21, 0.1mg/Kg) was 1149 103/μl. The RBC (Day 21, 0.1mg/Kg) was 9.6 1012/l, the Total protein (Day 21, 0.1mg/Kg) was 5.0 g/dL and the Triglyceride (Day 21, 0.1mg/Kg) was 119 mg/dL. The Urea (Day 21, 0.1mg/Kg) was 51 mg/dL, the WBC (Day 21, 0.1mg/Kg) was 6.4 103/μl and the LYMPH (Day 21, 0.1mg/Kg) was 71.3%. For the same compound, the ALP (Day 28, 0.02 mg/Kg) was 159 U/L, the ALT/SGPT (Day 28, 0.02 mg/Kg) was 71 U/L and the AST/SGOT (Day 28, 0.02 mg/Kg) was 129 U/L. For the same compound, the Cholesterol (Day 28, 0.02 mg/Kg) was 213 mg/dL, the Creatine (Day 28, 0.02 mg/Kg) was 0.16 mg/dL and the HCT (Day 28, 0.02 mg/Kg) was 48.0%. The HDL (Day 28, 0.02 mg/Kg) was 173 mg/dL, the HGB (Day 28, 0.02 mg/Kg) was 15 g/dL and the LDL (Day 28, 0.02 mg/Kg) was 98 mg/dL. For the same compound, the MCHC (Day 28, 0.02 mg/Kg) was 30.0 g/dL, the MCV (Day 28, 0.02 mg/Kg) was 62 fL and the PLT (Day 28, 0.02 mg/Kg) was 1724 103/μl. For the same compound, the RBC (Day 28, 0.02 mg/Kg) was 7.8 106/μl, the Total protein (Day 28, 0.02 mg/Kg) was 5.8 g/dL and the Triglyceride (Day 28, 0.02 mg/Kg) was 90 mg/dL. For the same compound, the Urea (Day 28, 0.02 mg/Kg) was 60 mg/dL, the WBC (Day 28, 0.02 mg/Kg) was 6.3 103/μl and the ALP (Day 28, 0.04 mg/Kg) was 174 U/L. For the same compound, the ALT/SGPT (Day 28, 0.04 mg/Kg) was 88 U/L, the AST/SGOT (Day 28, 0.04 mg/Kg) was 123 U/L and the Cholesterol (Day 28, 0.04 mg/Kg) was 182 mg/dL. The Creatine (Day 28, 0.04 mg/Kg) was 0.11 mg/dL, the HCT (Day 28, 0.04 mg/Kg) was 48.0% and the HDL (Day 28, 0.04 mg/Kg) was 143 mg/dL. The HGB (Day 28, 0.04 mg/Kg) was 14 g/dL, the LDL (Day 28, 0.04 mg/Kg) was 85 mg/dL and the MCHC (Day 28, 0.04 mg/Kg) was 29.0 g/dL. For the same compound, the MCV (Day 28, 0.04 mg/Kg) was 60 fL, the PLT (Day 28, 0.04 mg/Kg) was 1427 103/μl and the RBC (Day 28, 0.04 mg/Kg) was 8.0 106/μl. It also gave a Total protein (Day 28, 0.04 mg/Kg) of 6.3 g/dL, a Triglyceride (Day 28, 0.04 mg/Kg) of 123 mg/dL and a Urea (Day 28, 0.04 mg/Kg) of 66 mg/dL. The WBC (Day 28, 0.04 mg/Kg) was 3.1 103/μl, the ALP (Day 28, 0.1mg/Kg) was 184 U/L and the ALT/SGPT (Day 28, 0.1mg/Kg) was 74 U/L. The AST/SGOT (Day 28, 0.1mg/Kg) was 86 U/L, the Cholesterol (Day 28, 0.1mg/Kg) was 164 mg/dL and the Creatine (Day 28, 0.1mg/Kg) was 0.13 mg/dL. It also gave an HCT (Day 28, 0.1mg/Kg) of 43.0%, an HDL (Day 28, 0.1mg/Kg) of 134 mg/dL and an HGB (Day 28, 0.1mg/Kg) of 14 g/dL. It also gave an LDL (Day 28, 0.1mg/Kg) of 78 mg/dL, an MCHC (Day 28, 0.1mg/Kg) of 33.0 g/dL and an MCV (Day 28, 0.1mg/Kg) of 67 fL. The PLT (Day 28, 0.1mg/Kg) was 1394 103/μl, the RBC (Day 28, 0.1mg/Kg) was 6.4 106/μl and the Total protein (Day 28, 0.1mg/Kg) was 6.2 g/dL. For the same compound, the Triglyceride (Day 28, 0.1mg/Kg) was 72 mg/dL, the Urea (Day 28, 0.1mg/Kg) was 53 mg/dL and the WBC (Day 28, 0.1mg/Kg) was 3.9 103/μl.

From article PMC11025159 (Journal of Translational Medicine, 2024)
